{"source": "patent US20230277630A1", "about": "“METHODS AND COMPOSITIONS FOR TREATING AMYOTROPHIC LATERAL SCLEROSIS” (Amylyx Pharmaceuticals, Inc., priority 2022, published 2023)", "key": {"CYP2B6 mRNA": {"tested_on": "CYP2B6 mRNA", "experiment": "Induction of CYP2B6 mRNA in human hepatocytes (qPCR)", "details": "controls: 1,000 μM phenobarbital, 10 μM flumazenil, 72 h", "procedure": "Plateable and inducible cryopreserved human hepatocytes were thawed and isolated in human hepatocyte thawing medium.\nAll experiments were performed in triplicate.\nAfter induction treatment, CYP mRNA expression was measured by qPCR. Total RNA was isolated from the treated cells using the RNeasy® mini kit (Qiagen, Valencia, Calif., USA) and treated with RNase-free DNase (Qiagen) following the manufacturer's protocols. The concentration of RNA was determined using a Qubit® Fluorometer with a Qubit RNA HS assay kit (Invitrogen). cDNA was synthesized from up to 1 μg of the total RNA harvested from the cells using a QuantiTect® RT kit (Qiagen). Analysis of CYP gene expression by qPCR (Table 3) was performed using the LightCycler® 480 II System (Roche Diagnostics Corporation, Indianapolis, Ind., USA).\nRelative mRNA was expressed as the fold-increase calculated from the normalized mRNA level (2^−ΔΔCt) relative to vehicle control. The percentage of mRNA fold-increase relative to positive control was calculated using the following equation:\n% Induction relative to positive control=100×(mRNATA−mRNAvehicle)/(mRNApositive control−mRNAvehicle)"}, "human hepatocytes": {"tested_on": "human hepatocytes", "experiment": "Cell viability after CYP induction treatment (MTS)", "details": "controls: 50 μM OME, 1,000 μM phenobarbital, 50 μM RIF, 10 μM flumazenil, 72 h", "procedure": "Plateable and inducible cryopreserved human hepatocytes were thawed and isolated in human hepatocyte thawing medium. […] After attachment (4 hours), the medium was changed to fresh hepatocyte culture medium for overnight cell recovery. […] A positive control (100 μM chlorpromazine) was treated in parallel. […] The absorbance of formazan, which is proportional to the number of viable cells, was measured spectrophotometrically using the CellTiter 96® AQueous One Solution Cell Proliferation Assay (MTS).\nAfter the CYP induction treatment, the cells were used for cell viability assay. The viability of cells (expressed as the percentage of MTS absorbance relative to vehicle control) was measured as described herein."}, "CYP2C9": {"molecular_target": "CYP2C9 (Homo sapiens, UniProt P11712)", "sequence (P11712 whole entry)": "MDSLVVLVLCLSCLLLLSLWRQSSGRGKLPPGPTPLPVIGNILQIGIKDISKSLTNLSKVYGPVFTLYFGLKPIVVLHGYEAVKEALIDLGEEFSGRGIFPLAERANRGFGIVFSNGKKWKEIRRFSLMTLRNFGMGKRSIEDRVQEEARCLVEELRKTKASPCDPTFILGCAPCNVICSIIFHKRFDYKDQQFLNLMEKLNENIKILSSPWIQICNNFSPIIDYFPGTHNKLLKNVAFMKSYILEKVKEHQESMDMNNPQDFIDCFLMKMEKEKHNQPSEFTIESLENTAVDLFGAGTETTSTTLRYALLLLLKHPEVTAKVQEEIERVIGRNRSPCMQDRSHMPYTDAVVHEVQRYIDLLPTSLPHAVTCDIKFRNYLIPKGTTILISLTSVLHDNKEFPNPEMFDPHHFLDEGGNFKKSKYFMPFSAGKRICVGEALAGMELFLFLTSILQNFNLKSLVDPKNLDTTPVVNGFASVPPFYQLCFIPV", "experiment": "in vitro", "details": "microsomes; for % of Control Enzyme Activity: 30 min, pH 7.4", "procedure": "CYP TDI was evaluated by a 30-minute pre-incubation of the TA with HLM in the presence and absence of NADPH followed by the CYP enzyme activity assay. […] The total organic solvent content in the final incubation was less than 1% (DMSO ≤0.1%, other organic solvent ≤1%). The CYP reactions were initiated by adding an individual CYP probe substrate with (when NADPH was not added in the pre-incubation step) or without (when NADPH was added in the pre-incubation step) the addition of NADPH (1 mM). The reaction mixture was incubated at 37° C. for 10-30 minutes depending on the individual CYP isoform (Table 24). The reaction was terminated with ice-cold acetonitrile (ACN) containing an internal standard (IS, stable isotope-labeled CYP probe metabolite). Negative (vehicle) controls were conducted using the incubation mixture without the TA. Positive controls were performed in parallel using known CYP time-dependent inhibitors. […] The formation of individual CYP probe metabolites was determined by LC-MS/MS.\nThe enzyme activity was expressed as the peak area ratio of CYP probe metabolite to IS, measured by LC-MS/MS."}, "BCRP": {"molecular_target": "T1, BCRP (Homo sapiens, UniProt Q9UNQ0)", "T1 sequence (Q9UNQ0 1-655)": "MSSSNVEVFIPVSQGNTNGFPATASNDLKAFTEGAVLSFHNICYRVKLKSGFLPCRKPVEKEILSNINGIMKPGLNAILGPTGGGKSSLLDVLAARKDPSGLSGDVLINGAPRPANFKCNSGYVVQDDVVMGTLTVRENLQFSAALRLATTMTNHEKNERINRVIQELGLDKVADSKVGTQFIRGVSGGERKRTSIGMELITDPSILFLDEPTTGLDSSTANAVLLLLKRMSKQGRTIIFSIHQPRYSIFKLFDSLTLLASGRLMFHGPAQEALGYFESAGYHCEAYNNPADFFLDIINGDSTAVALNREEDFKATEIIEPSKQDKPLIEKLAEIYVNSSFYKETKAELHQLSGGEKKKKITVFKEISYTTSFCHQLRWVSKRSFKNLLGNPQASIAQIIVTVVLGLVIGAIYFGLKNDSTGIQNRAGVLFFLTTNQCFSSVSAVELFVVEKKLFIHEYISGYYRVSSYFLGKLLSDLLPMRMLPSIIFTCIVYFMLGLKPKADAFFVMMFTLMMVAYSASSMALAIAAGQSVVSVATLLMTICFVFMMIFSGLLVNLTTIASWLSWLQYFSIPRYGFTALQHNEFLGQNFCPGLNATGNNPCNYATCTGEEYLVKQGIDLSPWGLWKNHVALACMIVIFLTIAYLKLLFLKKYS", "experiment": "BCRP IC50 assessment, bidirectional cladribine transport in BCRP-MDCK cells", "details": "BCRP-MDCK cells, 10 μM cladribine alone or + TUDCA/PB Solution or 0.5 μM Ko143; single replicates", "procedure": "(§1) After 30 minutes, the pre-incubation solution was aspirated."}, "P-gp and BCRP": {"tested_on": "P-gp and BCRP", "experiment": "P-gp and BCRP substrate assessment, bidirectional permeability in C2BBe1 cells", "details": "for AP-to-BL Papp / BL-to-AP Papp / Papp A→B at 10 µM / Papp B→A at 10 µM: C2BBe1 cells, 10 μM probe; for Papp A→B at 10 µM / recovery at 10 μM / Papp B→A at 10 µM: human; for Papp A→B at 10 µM: Caco-2, pH 7.4, AP-to-BL Papp; for Papp B→A at 10 µM: Caco-2, pH 7.4, BL-to-AP Papp", "procedure": "The P-gp and BCRP substrate assessment was conducted in C2BBe1 cell monolayers. […] LY was co-dosed with each dosing solution at a nominal concentration of 200 μM.\nThe cell culture medium was aspirated, and the cell monolayers were rinsed once with HBSSg_7.4. […] For receiver samples, aliquots (300 μL) were taken at pre-selected time points. […] For donor samples, aliquots (50 μL) were taken at pre-selected time points without replacement."}, "P-gp [1]": {"molecular_target": "T2, P-gp (Homo sapiens, UniProt P08183)", "T2 sequence (P08183 whole entry)": "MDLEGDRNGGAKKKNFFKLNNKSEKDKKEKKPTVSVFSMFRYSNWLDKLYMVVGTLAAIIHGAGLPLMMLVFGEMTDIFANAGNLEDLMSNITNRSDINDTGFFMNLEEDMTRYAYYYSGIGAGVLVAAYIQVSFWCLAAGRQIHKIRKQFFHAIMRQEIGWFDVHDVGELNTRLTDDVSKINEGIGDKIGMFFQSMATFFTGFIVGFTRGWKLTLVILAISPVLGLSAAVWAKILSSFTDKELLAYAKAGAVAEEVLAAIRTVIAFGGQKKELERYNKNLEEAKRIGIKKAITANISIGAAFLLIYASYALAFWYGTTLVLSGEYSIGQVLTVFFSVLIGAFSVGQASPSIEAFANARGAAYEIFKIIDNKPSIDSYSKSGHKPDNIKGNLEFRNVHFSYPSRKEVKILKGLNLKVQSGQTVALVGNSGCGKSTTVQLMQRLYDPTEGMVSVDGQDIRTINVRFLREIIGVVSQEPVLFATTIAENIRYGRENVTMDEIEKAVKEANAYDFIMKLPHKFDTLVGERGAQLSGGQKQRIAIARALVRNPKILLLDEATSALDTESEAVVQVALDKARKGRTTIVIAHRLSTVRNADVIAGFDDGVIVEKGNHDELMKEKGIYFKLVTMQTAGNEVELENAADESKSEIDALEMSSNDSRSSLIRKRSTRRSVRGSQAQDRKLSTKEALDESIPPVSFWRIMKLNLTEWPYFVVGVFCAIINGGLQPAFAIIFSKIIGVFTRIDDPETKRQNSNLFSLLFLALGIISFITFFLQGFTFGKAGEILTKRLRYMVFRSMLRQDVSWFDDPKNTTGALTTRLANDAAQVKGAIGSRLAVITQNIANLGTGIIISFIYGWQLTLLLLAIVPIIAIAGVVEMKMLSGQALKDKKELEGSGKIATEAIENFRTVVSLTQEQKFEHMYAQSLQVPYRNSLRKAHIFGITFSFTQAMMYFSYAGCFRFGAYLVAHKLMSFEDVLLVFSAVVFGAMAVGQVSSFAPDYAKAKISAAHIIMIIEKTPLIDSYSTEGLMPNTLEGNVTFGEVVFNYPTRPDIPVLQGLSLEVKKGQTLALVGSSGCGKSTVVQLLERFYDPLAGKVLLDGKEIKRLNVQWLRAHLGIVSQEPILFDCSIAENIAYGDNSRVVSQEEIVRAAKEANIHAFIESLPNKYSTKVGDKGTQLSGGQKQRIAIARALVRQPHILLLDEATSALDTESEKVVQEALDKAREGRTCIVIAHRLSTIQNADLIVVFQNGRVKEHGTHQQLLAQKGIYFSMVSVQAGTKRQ", "experiment": "P-gp IC50 assessment, bidirectional digoxin transport in C2BBe1 cells", "procedure": "as §1"}, "P-gp [2]": {"molecular_target": "T2, P-gp", "experiment": "P-gp IC50 assessment, bidirectional digoxin transport in MDR1-MDCK cells"}, "[3]": {"details": "pH 7.4, % of Control Enzyme Activity"}, "[4]": {"details": "batch used with Sol_1, Sol_3, and Sol_4, single replicates"}, "[5]": {"details": "batch used with Sol_2, single replicates"}, "[6]": {"details": "batch used with Sol_1, Sol_3, and Sol_4, Average"}}, "note": "Several values for one entry are separate records, joined by “and”; a condition that tells them apart may be missing. Equal values may be shown once."}
{"compound": "CCC1(c2ccccc2)C(=O)NC(=O)NC1=O", "note": "[Phenobarbital, phenobarbital]", "values": [{"measurement": "CYP2B6 mRNA % Induction Relative to Positive Control", "setting": "CYP2B6 mRNA; donor 1", "result": 100, "unit": "%"}, {"measurement": "CYP2B6 mRNA Fold-increase (n = 3) Mean", "setting": "CYP2B6 mRNA; donor 1", "result": 21.8, "unit": "fold"}, {"measurement": "CYP2B6 mRNA % Induction Relative to Positive Control", "setting": "CYP2B6 mRNA; donor 2", "result": 100, "unit": "%"}, {"measurement": "CYP2B6 mRNA Fold-increase (n = 3) Mean", "setting": "CYP2B6 mRNA; donor 2", "result": 39.6, "unit": "fold"}, {"measurement": "CYP2B6 mRNA % Induction Relative to Positive Control", "setting": "CYP2B6 mRNA; donor 3", "result": 100, "unit": "%"}, {"measurement": "CYP2B6 mRNA Fold-increase (n = 3) Mean", "setting": "CYP2B6 mRNA; donor 3", "result": 7.36, "unit": "fold"}, {"measurement": "% MTS Absorbance Relative to Vehicle Control", "setting": "human hepatocytes; donor 1", "result": 97.7, "unit": "%"}, {"measurement": "Formazan Absorbance (n = 6) Mean", "setting": "human hepatocytes; donor 1", "result": 0.417}, {"measurement": "% MTS Absorbance Relative to Vehicle Control", "setting": "human hepatocytes; donor 2", "result": 98.8, "unit": "%"}, {"measurement": "Formazan Absorbance (n = 6) Mean", "setting": "human hepatocytes; donor 2", "result": 0.504}, {"measurement": "% MTS Absorbance Relative to Vehicle Control", "setting": "human hepatocytes; donor 3", "result": 108, "unit": "%"}, {"measurement": "Formazan Absorbance (n = 6) Mean", "setting": "human hepatocytes; donor 3", "result": 0.320}]}
{"compound": "O=C(O)COc1ccc(C(=O)c2cccs2)c(Cl)c1Cl", "note": "[Tienilic acid]", "values": [{"measurement": "% of Control Enzyme Activity", "setting": "CYP2C9; 10 µM", "result": 11.7, "unit": "%"}, {"measurement": "% of Control Enzyme Activity", "setting": "CYP2C9; 30 µM", "result": 9.64, "unit": "%"}, {"measurement": "activity at 30 min, 10 µM", "setting": "CYP2C9; [3]", "result": 22.2, "unit": "%"}, {"measurement": "activity at 30 min, 30 µM", "setting": "CYP2C9; [3]", "result": 16.2, "unit": "%"}]}
{"compound": "Nc1nc(Cl)nc2c1ncn2[C@H]1C[C@H](O)[C@@H](CO)O1", "note": "[cladribine]", "values": [{"measurement": "BL-to-AP Papp of cladribine", "setting": "BCRP", "result": "15.5 10^−6 cm/s"}, {"measurement": "AP-to-BL Papp", "setting": "P-gp and BCRP; [4]", "result": "0.549 10^−6 cm/s and 0.580 10^−6 cm/s"}, {"measurement": "BL-to-AP Papp", "setting": "P-gp and BCRP; [4]", "result": "13.3 10^−6 cm/s and 13.0 10^−6 cm/s"}, {"measurement": "AP-to-BL Papp", "setting": "P-gp and BCRP; [5]", "result": "0.612 10^−6 cm/s and 0.554 10^−6 cm/s"}, {"measurement": "BL-to-AP Papp", "setting": "P-gp and BCRP; [5]", "result": "12.4 10^−6 cm/s and 13.1 10^−6 cm/s"}, {"measurement": "Papp A→B at 10 µM", "setting": "P-gp and BCRP; [6]", "result": 0.5, "unit": "×10⁻⁶ cm/s"}, {"measurement": "Papp A→B at 10 µM", "setting": "P-gp and BCRP; [4]", "result": 0.37, "unit": "×10⁻⁶ cm/s"}, {"measurement": "Papp A→B at 10 µM", "setting": "P-gp and BCRP; batch used with Sol_2, Average", "result": 0.648, "unit": "×10⁻⁶ cm/s"}, {"measurement": "Papp A→B at 10 µM", "setting": "P-gp and BCRP; [5]", "result": 0.778, "unit": "×10⁻⁶ cm/s"}, {"measurement": "recovery at 10 μM", "setting": "P-gp and BCRP; Caco-2, pH 7.4, AP-to-BL Recovery", "result": 95.3, "unit": "%"}, {"measurement": "Papp B→A at 10 µM", "setting": "P-gp and BCRP; [6]", "result": 13.5, "unit": "×10⁻⁶ cm/s"}, {"measurement": "Papp B→A at 10 µM", "setting": "P-gp and BCRP; [4]", "result": 14.1, "unit": "×10⁻⁶ cm/s"}, {"measurement": "Papp B→A at 10 µM", "setting": "P-gp and BCRP; batch used with Sol_2, Average", "result": 12.8, "unit": "×10⁻⁶ cm/s"}, {"measurement": "Papp B→A at 10 µM", "setting": "P-gp and BCRP; [5]", "result": 12.8, "unit": "×10⁻⁶ cm/s"}, {"measurement": "recovery at 10 μM", "setting": "P-gp and BCRP; Caco-2, pH 7.4, BL-to-AP Recovery", "result": 92.9, "unit": "%"}]}
{"compound": "C/C=C/C[C@@H](C)C(=O)[C@H]1C(=O)N[C@@H](C(C)C)C(=O)N(C)CC(=O)N(C)[C@@H](CC(C)C)C(=O)N[C@@H](C(C)C)C(=O)N(C)[C@@H](CC(C)C)C(=O)N[C@@H](C)C(=O)N[C@H](C)C(=O)N(C)[C@@H](CC(C)C)C(=O)N(C)[C@@H](CC(C)C)C(=O)N(C)[C@@H](C(C)C)C(=O)N1C", "note": "[valspodar, reference compound]", "values": [{"measurement": "Percent Inhibition (P-gp, digoxin efflux)", "setting": "P-gp [1]; C2BBe1 cells, 10 μM digoxin + TUDCA/PB Solution or 1 μM valspodar", "result": 99.3, "unit": "%"}, {"measurement": "inhibition at 1 μM", "setting": "P-gp [1]; human, pH 7.4", "result": 99.3, "unit": "%"}, {"measurement": "Percent Inhibition (P-gp)", "setting": "P-gp [2]; 10 μM Digoxin + 1 μM Valspodar, MDR1-MDCK cells", "result": 99.9, "unit": "%"}, {"measurement": "inhibition at 1 μM", "setting": "P-gp [2]; human, MDR1-MDCK cell monolayers on Transwell plates, pH 7.4, probe digoxin (10 μM)", "result": 99.9, "unit": "%"}]}
